These results are taken from patent US11020457B2, “Compositions and methods for protecting the kidney from ischemia reperfusion injury” (University of Virginia Patent Foundation, priority 2013, dated 2021).

The subject of assay [1] is TKPTS cells. In words: In-vitro hypoxia and re-oxygenation of TKPTS cells, Annexin V/PI flow cytometry. The class given is cell-based, mouse. The note with it: 50 μM hepcidin for 24 hours, 1% hypoxia 6 hours, 6 hours re-oxygenation; p<0.005. Here is the method:
A mouse proximal tubule cell line (TKPTS cells, kindly provided by Dr. E. Bello-Reuss, University of Texas Medical Branch, Galveston, Tex.) was used in these studies. The cells were cultured in advanced DMEM/F12 medium supplemented with glutamine, 7.5% FBS and antibiotics. Cells were grown to 80% confluence and maintained at 37° C. in 5% CO2. All experiments were performed in serum free DMEM/F12 medium for a maximum of 24 hours.
TKPTS cells were subjected to hypoxia using a hypoxic chamber (Stemcell Technologies) for 6 hrs (5% CO2, 1% O2, and 94% N2) followed by re-oxygenation for 6 hrs (5% CO2, 21% 02, and 74% N2). Three culture conditions were set up: 1. Normoxia (which served as the base line control); 2. Hypoxia; and 3. Cells pretreated with 50 μM hepcidin and subjected to hypoxia. Experiments were carried out in serum free advanced DMEM/F12 medium. At the end of re-oxygenation, cells were stained with Annexin V/PI and extent of apoptosis was determined using flow cytometry.
To investigate if hepcidin has a direct anti-apoptotic effect on renal tubular epithelial cells, we subjected murine proximal renal tubular cells (TKPTS) to hypoxia-reoxygenation injury in vitro (34). TKPTS cells were first treated with or without 50 μM hepcidin for 24 hours in 5% serum containing medium. After transferring to serum free medium, the cells were then cultured in 1% hypoxia for 6 hours. […]
A general note: Flow cytometry measures light scatter and fluorescence of single cells or particles in a stream.

For assay [2], the system named is C57BL/6 mice. In words: Renal IRI in WT mice: flow cytometry of kidney immune cells. It is filed as in vivo. Conditions: hepcidin vs untreated IRI, p<0.005. Here is the method: (§1) All experiments were performed in accordance with the National Institutes of Health and Institutional Animal Care and Use Guidelines. The Animal Care and Use Committee of the University of Virginia approved all procedures and protocols. C57BL/6 mice from the Jackson Laboratory and hepcidin knockout mice (HAMP−/−), a kind gift from Dr Cindy Roy (John Hopkins University) were used in this study. All experiments were performed on 8-10 weeks old male mice. Kidney ischemia-reperfusion surgery was performed as previously reported (44). The core temperature of the mice was maintained between 34° C. and 36° C. using a heating pad. After anesthetizing the mice (ketamine, 12 mg/ml; atropine, 0.48 mg/ml; xylazine, 24 mg/ml; […] mixture administered per 20 g body weight), bilateral flank incisions were made, both renal pedicles were exposed, and cross-clamped for 26 minutes (severe I/R injury) or 24 minutes (mild I/R injury). After the determined ischemia, clamps were removed, and kidneys were allowed to reperfuse for 24 hours. […]
Single-cell suspensions from the kidney were prepared using standard methods. […] Flow cytometry data were acquired using BD FACSCalibur (BD Biosciences, San Jose, Calif.) with Cytek eight-color flow cytometry upgrade (Cytek Development, Fremont, Calif.) and analyzed with FlowJo software 9.0 (Tree Star Inc., Ashland, Oreg.). […]

Assay [3] has as its system C57BL/6 mice. Description: Renal IRI in WT mice: Western blot of kidney ferroportin and H-Ferritin. The class given is in vivo. Conditions: for kidney ferroportin expression (membrane fraction): pretreatment with hepcidin, p<0.01, FIG. 5a-b. Here is the method:
as §1, with “hours. Ambient postoperative air temperature was maintained between 30° C. and 32° C. until mice had fully recovered. Sham-operated animals underwent bilateral flank incisions without clamping of renal pedicles. Twenty-four hours later, mice were euthanized, and tissues were harvested.” for “hours.”
Snap frozen tissue sections were homogenized in Tris-Triton tissue lysis buffer containing complete protease inhibitor cocktail using a Dounce Homogenizer. […] H-Ferritin was measured in the whole kidney and spleen lysates. […] The primary antibodies were detected with Donkey anti-goat Alexa 800 and goat anti-rabbit Alexa 800 antibodies (LiCor Bioscience). Mouse monoclonal GAPDH and β-Actin (Abcam) were used as the loading controls and detected using Donkey anti Mouse Alexa 680 antibody (LiCor Bioscience). Quantitation of data was performed using densitometry software (Licor Bioscience).
(Immunoblotting shows a protein as a band on a membrane.)

Assay [4] relates to hepcidin knockout mice (HAMP−/−). Description: Renal IRI in HAMP-/- mice: splenic ferroportin and splenic H-Ferritin. The class given is in vivo. The note with it: for splenic H-Ferritin: HAMP-/- Hepcidin-IRI vs HAMP-/- IRI and vs Sham, p<0.005, FIG. 9c. Here is the method:
All experiments were performed in accordance with the National Institutes of Health and Institutional Animal Care and Use Guidelines. The Animal Care and Use Committee of the University of Virginia approved all procedures and protocols. C57BL/6 mice from the Jackson Laboratory and hepcidin knockout mice (HAMP−/−), a kind gift from Dr Cindy Roy (John Hopkins University) were used in this study. All experiments were performed on 8-10 weeks old male mice. Kidney ischemia-reperfusion surgery was performed as previously reported (44). The core temperature of the mice was maintained between 34° C. and 36° C. using a heating pad. After anesthetizing the mice (ketamine, 12 mg/ml; atropine, 0.48 mg/ml; xylazine, 24 mg/ml; […] mixture administered per 20 g body weight), bilateral flank incisions were made, both renal pedicles were exposed, and cross-clamped for 26 minutes (severe I/R injury) or 24 minutes (mild I/R injury). After the determined ischemia, clamps were removed, and kidneys were allowed to reperfuse for 24 hours. Ambient postoperative air temperature was maintained between 30° C. and 32° C. until mice had fully recovered. Sham-operated animals underwent bilateral flank incisions without clamping of renal pedicles. Twenty-four hours later, mice were euthanized, and tissues were harvested.
Snap frozen tissue sections were homogenized in Tris-Triton tissue lysis buffer containing complete protease inhibitor cocktail using a Dounce Homogenizer. Membrane fractions were isolated from the whole kidney lysate using membrane isolation kit (Thermo Pierce) to determine ferroportin expression. H-Ferritin was measured in the whole kidney and spleen lysates. […] The primary antibodies were detected with Donkey anti-goat Alexa 800 and goat anti-rabbit Alexa 800 antibodies (LiCor Bioscience). Mouse monoclonal GAPDH and β-Actin (Abcam) were used as the loading controls and detected using Donkey anti Mouse Alexa 680 antibody (LiCor Bioscience). Quantitation of data was performed using densitometry software (Licor Bioscience).

Assay [5] has as its system iron loaded bone marrow macrophages. Conditions: hepcidin pretreatment; cited from earlier work.

“Also recorded” adds a separate entry of the source.

Consider “Mouse hepcidin 25 (DTNFPICIFCCKCCNNSQCGICCKT; listed as Mus musculus)”, for which the “Annexin V/PI positive cells (apoptosis/necrosis)” value in assay [1] is given as “significantly lower Annexin V/PI staining compared to untreated cells; also recorded: reduced to levels seen under normoxia”. Besides, the “frequency of kidney CD45+ cells” value in assay [2] (FIG. 4b-c) is on record as “reduced renal inflammatory cell infiltration by almost half”. Further, the kidney neutrophils result in assay [2] (FIG. 4c) is given as “significantly reduced IRI-induced renal neutrophil inflammation”. In addition, the “kidney H-Ferritin expression” value in assay [3] (hepcidin-IRI Vs IRI p<0.005, Vs Sham p<0.05, FIG. 5c-d) was “significantly higher H-Ferritin expression compared to both untreated IRI mice and sham mice; also recorded: prevented”. The “kidney ferroportin expression (membrane fraction)” value is given as “prevented the IRI induced upregulation” in assay [3] and “levels comparable to sham mice” in assay [3] (listed as hepcidin). Also, the “splenic H-Ferritin” value was “increased splenic H-Ferritin levels” in assay [4]; “significantly higher H-Ferritin compared to both untreated IRI mice and sham controls” in assay [4] (listed as hepcidin). In addition, the splenic ferroportin expression result in assay [4] (hepcidin reconstitution in HAMP-/- mice, renal IRI) was “lower ferroportin expression than sham-operated mice”. In assay [5], the “LPS-induced IL-6 and TNF alpha production” value is “reduced LPS-induced IL-6 and TNF alpha production”.
